In patent publication US20160221932A1, “Methods and Uses of Melatonin Ligands” (priority 2013, published 2016):
“Also recorded” adds a separate entry of the source.

What was measured:
[1] = target: T1, human MT1 receptor (Homo sapiens, UniProt P48039); assay: 2-[125I]iodomelatonin competition binding, human MT1 in CHO cells; conditions: human MT1 stably expressed in CHO cells, calculated from IC50 by Cheng and Prusoff
T1 construct: expressed in transfected cells

[2] = tested on: Wistar rats; assay: hot plate test; type: in vivo, rat; conditions: for withdrawal temperature compared to untreated rats: summary statement, dose not stated
Method: Animals: Wistar rats (150-250 g, Charles-River Saint-Constant, Quebec, Canada) were used for the formalin test, hot plate test and L5-L6 spinal nerves ligature model. The animals were housed at constant room temperature and humidity under a 12 h light/dark cycle (lights on at 7 AM). Food and water were available ad libitum. Hot plate test: The hot-plate test was performed by using an electronically controlled hot-plate (Ugo Basile, Italy). The initial temperature was 38° C. A near linear increase in temperature (3° C. per min) was obtained by turning the heating adjustment to maximum. The temperature at which the fast hindpaw lick occurred was recorded as the nociceptive end-point. If no hindpaw lick was observed, the test was terminated at 52° C., and this cut-off value was used in the analysis. The plate was wiped with a wet cloth, and a fan located behind the plate allowed rapid cooling so that testing could be conducted every 7.5 min. Statistical Analysis: Data analysis was done using SigmaPlot 12 (Systat Software, Inc.). Two-way ANOVA for repeated measures was used to analyze data from L5-L6 models using treatments (between) and testing time (within) as factors. One-way ANOVA was used to analyze AUC in the L5-L6 spinal nerves ligation model. One-way ANOVA was used for formalin and hot-plate tests. Post-hoc analyses were performed using Bonferroni t-test comparisons or Student-Newman-Keuls (SNK) test. All data are expressed as mean±Standard Error of the Mean (SEM). P<0.05 was considered significant.

[3] = tested on: Wistar rats; assay: formalin test; type: in vivo, rat; conditions: for licking time vs vehicle, first phase / licking time vs vehicle, second phase / licking time vs vehicle, total time: 30 min prior to test; for licking time compared to untreated rats: summary statement, dose not stated
Method: Animals: Wistar rats (150-250 g, Charles-River Saint-Constant, Quebec, Canada) were used for the formalin test, hot plate test and L5-L6 spinal nerves ligature model. The animals were housed at constant room temperature and humidity under a 12 h light/dark cycle (lights on at 7 AM). Food and water were available ad libitum.
Formalin Test: Antinociception was assessed using the formalin test (Dubuisson and Dennis, 1977). Rats were placed in open Plexiglas observation chambers for 60 min to allow them to acclimatize to their surroundings; then they were removed for formalin administration. Rats were gently restrained while the dorsal surface of the right hindpaw was injected with […] of 1% formalin (37% formaldehyde solution further diluted in saline solution) with a 30-gauge needle. The animals were returned to the chambers and nociceptive behavior was observed immediately after formalin injection. Mirrors were placed in each chamber to enable unhindered observation. Licking/biting behavior directed to the formalin injected paw was scored in 5 min intervals considering number and duration of the licking. Cumulative behavior for the total duration of the test as well as the first (0-10 min) and second phase (20-50 min) was then analyzed (Sufka et al., 1998).The initial acute phase (0-10 min) was followed by a relatively short quiescent period, which was then followed by a prolonged tonic response (15-60 min). The first phase is considered to be the result of direct stimulation of nociceptors, whereas inflammation process contributes to phase 2 activity (Hunskaar and Hole, 1987). At the end of the experiment the rats were sacrificed in a CO2 chamber.
Statistical Analysis: Data analysis was done using SigmaPlot 12 (Systat Software, Inc.). Two-way ANOVA for repeated measures was used to analyze data from L5-L6 models using treatments (between) and testing time (within) as factors. One-way ANOVA was used to analyze AUC in the L5-L6 spinal nerves ligation model. One-way ANOVA was used for formalin and hot-plate tests. Post-hoc analyses were performed using Bonferroni t-test comparisons or Student-Newman-Keuls (SNK) test. All data are expressed as mean±Standard Error of the Mean (SEM). P<0.05 was considered significant.

[4] = 20 mg/kg s.c., 30 min post treatment
[5] = 20 mg/kg s.c., 1 hour post treatment
[6] = 20 mg/kg s.c., 4 hours post treatment
[7] = 40 mg/kg, 1 hour post treatment
[8] = 40 mg/kg, 4 hours post treatment

T1 sequence (P48039 whole entry): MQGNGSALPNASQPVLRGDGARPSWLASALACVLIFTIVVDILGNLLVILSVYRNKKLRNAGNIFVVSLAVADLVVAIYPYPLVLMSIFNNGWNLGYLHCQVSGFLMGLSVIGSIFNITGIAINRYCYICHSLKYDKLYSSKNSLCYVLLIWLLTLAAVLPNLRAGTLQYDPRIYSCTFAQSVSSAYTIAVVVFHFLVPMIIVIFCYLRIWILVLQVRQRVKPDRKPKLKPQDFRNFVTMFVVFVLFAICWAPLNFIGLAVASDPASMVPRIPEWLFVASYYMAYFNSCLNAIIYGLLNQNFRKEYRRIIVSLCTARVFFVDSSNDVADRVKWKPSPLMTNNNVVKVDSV

Row | Structure (SMILES) | Ki ([1]; read-out: MT1 pKi (converted)) [µM] | withdrawal temperature vs vehicle [2, 4] | withdrawal temperature vs vehicle [2, 5] | withdrawal temperature vs vehicle [2, 6] | withdrawal temperature vs vehicle [2, 7] | withdrawal temperature vs vehicle [2, 8] | withdrawal temperature compared to untreated rats [2] | licking time vs vehicle, first phase ([3]; 10 mg/kg) | licking time vs vehicle, second phase ([3]; 10 mg/kg) | licking time vs vehicle, first phase ([3]; 20 mg/kg s.c.) | licking time vs vehicle, second phase ([3]; 20 mg/kg s.c.) | licking time vs vehicle, total time ([3]; 20 mg/kg s.c.) | licking time vs vehicle, first phase ([3]; 40 mg/kg) | licking time vs vehicle, second phase ([3]; 40 mg/kg) | licking time vs vehicle, total time ([3]; 40 mg/kg) | licking time compared to untreated rats [3] | MT1 pKi [1] | licking time vs vehicle, total time ([3]; 10 mg/kg)
1 | CC(=O)NCCN(c1ccc(F)cc1)c1cccc(Br)c1 [5p, N-{2-[(3-Bromophenyl)-4-fluorophenylamino]ethyl}acetamide] | 0.178 | significant increase of the withdrawal temperature | increase of withdrawal temperature; also recorded: increased the withdrawal temperature | significant increase of withdrawal temperature; also recorded: increased the withdrawal temperature | increase of withdrawal temperature | significant increase of withdrawal temperature | significant increase in withdrawal temperature | decrease in the licking time | decreased the licking time | decrease in the licking time; also recorded: decreased the licking time | decreased the licking time; also recorded: decrease of the licking time | reduction of the licking time; also recorded: decrease in the licking time; also recorded: decreased the licking time | decrease in the licking time; also recorded: decreased the licking time | decreased the licking time | reduction of the licking time; also recorded: decreased the licking time | significantly decreased |  | 
2 | COc1cccc(N(CCNC(C)=O)c2ccccc2)c1 [5b, N-{2-[(3-Methoxyphenyl)-phenylamino]ethyl}acetamide] |  | significant increase of the withdrawal temperature | increase of withdrawal temperature; also recorded: increased the withdrawal temperature | significant increase of withdrawal temperature; also recorded: increased the withdrawal temperature | increase of withdrawal temperature | significant increase of withdrawal temperature | significant increase in withdrawal temperature | decrease in the licking time |  | decrease in the licking time; also recorded: decreased the licking time | decreased the licking time; also recorded: decrease of the licking time | reduction of the licking time; also recorded: decrease in the licking time; also recorded: decreased the licking time | decrease in the licking time; also recorded: decreased the licking time | decreased the licking time | reduction of the licking time; also recorded: decreased the licking time | significantly decreased | 8.38 | reduction of the licking time
